Assay results reported in patent US20140005163A1 (NOVARTIS AG, priority 2010, published 2014).
Converted amounts (≈) assume the structure as drawn. Where two headings read alike, the source gives them in different places.

How the values were obtained:
Solubility at pH 6.8 = assay type: physicochemical
Method in brief: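 Solubility was measured at pH 6.8 following the cited Zhou et al. (2007) procedure.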

PI3K delta = target: T1, PI3K delta (Homo sapiens, UniProt O00329); experiment: PI3K delta kinase assay (Kinase-Glo luminescence); assay type: biochemical
T1 construct: for the full-length p110-d subunit are generated and fused by overlapping PCR; p85(iSH2) fusion partner (see partner chain) (N); His tag (C); made in house; host or cells: baculovirus; Tn5 (Trichoplusia ni) or TiniPro insect cells
Method in brief: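 Recombinant p85(iSH2)-Gly linker-p110δ full-length construct (BV1060, C-terminal His tag) was used at 10 nM with 10 μg/mL phosphatidylinositol and 1 μM ATP in 10 mM Tris-HCl pH 7.5, 3 mM MgCl2, 50 mM NaCl, 0.05% CHAPS, 1 mM DTT. After 60 min at room temperature, remaining ATP was measured by Kinase-Glo luminescence.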

[1] = test system: PKB Ser473 phosphorylation in Rat1-myr-HA-p110 alpha cells; experiment: Reverse protein array assay, PKB Ser473 phosphorylation in Rat1-myr-p110 alpha cells; assay type: cell-based; details: 0.5 h, pAkt Ser473, 30 minutes compound incubation, read-out: p-PKB IC50
Method in brief: (§1)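 Cells: Rat1-myr-HA-p110 alpha/beta/delta, seeded ≥20 h. Lysis on ice 10 min; reverse-phase protein array, 4 lysate dilutions; fluorescence read, relative intensity.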

[2] = test system: PKB Ser473 phosphorylation in Rat1-myr-HA-p110 beta cells; experiment: Reverse protein array assay, PKB Ser473 phosphorylation in Rat1-myr-p110 beta cells; assay type: cell-based; details: 0.5 h, pAkt Ser473, 30 minutes incubation, read-out: p-PKB IC50
Method in brief: as §1

[3] = test system: PKB Ser473 phosphorylation in Rat1-myr-HA-p110 delta cells; experiment: Reverse protein array assay, PKB Ser473 phosphorylation in Rat1-myr-p110 delta cells; assay type: cell-based; details: read-out: p-PKB IC50
Method in brief: as §1

[4] = pH 6.8, aqueous buffer, thermodynamic from solid, read-out: solubility

T1 sequence (O00329 with tags, fused parts or gaps limits assumed): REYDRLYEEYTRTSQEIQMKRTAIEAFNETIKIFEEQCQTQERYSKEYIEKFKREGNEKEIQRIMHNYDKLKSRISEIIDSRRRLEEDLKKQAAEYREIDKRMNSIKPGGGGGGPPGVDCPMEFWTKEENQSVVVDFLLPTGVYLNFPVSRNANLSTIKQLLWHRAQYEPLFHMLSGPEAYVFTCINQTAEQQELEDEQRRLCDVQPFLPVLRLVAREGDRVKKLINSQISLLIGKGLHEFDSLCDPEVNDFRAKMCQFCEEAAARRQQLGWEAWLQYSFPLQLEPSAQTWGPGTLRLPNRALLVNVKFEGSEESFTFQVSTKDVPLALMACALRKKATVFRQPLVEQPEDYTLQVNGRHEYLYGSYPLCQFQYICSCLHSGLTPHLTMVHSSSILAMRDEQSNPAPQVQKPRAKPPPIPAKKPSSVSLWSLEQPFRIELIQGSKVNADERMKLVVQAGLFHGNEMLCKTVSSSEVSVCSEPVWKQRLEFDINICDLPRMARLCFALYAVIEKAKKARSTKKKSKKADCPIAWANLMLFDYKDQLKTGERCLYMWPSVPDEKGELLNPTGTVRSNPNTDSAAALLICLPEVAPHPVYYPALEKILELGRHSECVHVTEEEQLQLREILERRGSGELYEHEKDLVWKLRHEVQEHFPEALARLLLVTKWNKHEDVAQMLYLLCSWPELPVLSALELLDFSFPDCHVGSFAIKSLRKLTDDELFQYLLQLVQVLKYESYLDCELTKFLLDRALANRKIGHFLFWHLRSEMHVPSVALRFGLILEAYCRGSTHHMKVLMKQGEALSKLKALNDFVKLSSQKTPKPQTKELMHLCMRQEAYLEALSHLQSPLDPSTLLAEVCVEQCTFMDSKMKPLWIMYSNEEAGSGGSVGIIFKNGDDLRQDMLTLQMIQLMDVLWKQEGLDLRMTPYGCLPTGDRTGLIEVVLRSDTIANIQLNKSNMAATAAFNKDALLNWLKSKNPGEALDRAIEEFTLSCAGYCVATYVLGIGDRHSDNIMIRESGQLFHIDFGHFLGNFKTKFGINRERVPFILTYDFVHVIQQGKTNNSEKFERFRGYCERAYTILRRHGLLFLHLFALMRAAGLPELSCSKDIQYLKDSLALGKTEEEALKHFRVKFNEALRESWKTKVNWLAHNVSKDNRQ

SMILES	solubility (Solubility at pH 6.8; [4]) [µg/mL]	IC50 (PI3K delta) [nM]	IC50 [1] [nM]	IC50 [2] [nM]	IC50 [3] [nM]	solubility (Solubility at pH 6.8; pH 6.8) [µg/mL]
CCNc1ncc(-c2ccc3ncc4c(c3c2)n(-c2cn(C)nc2C)c(=O)n4C)cc1COCC [Example 167, 1-(1,3-Dimethyl-1H-pyrazol-4-yl)-8-(5-ethoxymethyl-6-ethylamino-pyridin-3-yl)-3-methyl-1,3-dihydro-imidazo[4,5-c]quinolin-2-one]	4 (≈ 8.48 µM)	25	35	72	91	–
CCn1cc(-n2c(=O)n(C)c3cnc4ccc(-c5cnc(N)c(COC)c5)cc4c32)c(C)n1 [Example 168.2, 8-(6-Amino-5-methoxymethyl-pyridin-3-yl)-1-(1-ethyl-3-methyl-1H-pyrazol-4-yl)-3-methyl-1,3-dihydro-imidazo[4,5-c]quinolin-2-one]	24 (≈ 54.1 µM)	11	12	18	19	–
Cc1ncc(-c2ccc3ncc4c(c3c2)n(-c2cn(C)nc2C)c(=O)n4C)cc1O [Example 185.1, 1-(1,3-Dimethyl-1H-pyrazol-4-yl)-8-(5-hydroxy-6-methyl-pyridin-3-yl)-3-methyl-1,3-dihydro-imidazo[4,5-c]quinolin-2-one]	17 (≈ 42.5 µM)	9	13	46	326	–
Cc1ncc(-c2ccc3ncc4c(c3c2)n(-c2cn(C)nc2C)c(=O)n4C)cc1OC(CF)CF [Example 189, 1-(1,3-Dimethyl-1H-pyrazol-4-yl)-8-[5-(2-fluoro-1-fluoromethyl-ethoxy)-6-methyl-pyridin-3-yl]-3-methyl-1,3-dihydro-imidazo[4,5-c]quinolin-2-one]	15 (≈ 31.3 µM)	6	< 5	< 5	5	–
Cc1nn(C)cc1-n1c(=O)n(C)c2cnc3ccc(-c4cnc(CO)c(OC(C)C)c4)cc3c21 [Example 190, 1-(1,3-Dimethyl-1H-pyrazol-4-yl)-8-(6-hydroxymethyl-5-isopropoxy-pyridin-3-yl)-3-methyl-1,3-dihydro-imidazo[4,5-c]quinolin-2-one]	5 (≈ 10.9 µM)	11	19	16	54	–
COCc1ncc(-c2ccc3ncc4c(c3c2)n(-c2cn(C)nc2C)c(=O)n4C)cc1OC(C)C [Example 191.1, 1-(1,3-Dimethyl-1H-pyrazol-4-yl)-8-(5-isopropoxy-6-methoxymethyl-pyridin-3-yl)-3-methyl-1,3-dihydro-imidazo[4,5-c]quinolin-2-one]	> 473	6	14	54	56	–
COc1cc(-c2ccc3ncc4c(c3c2)n(-c2cn(C)nc2C)c(=O)n4C)cnc1CO [Example 193, 1-(1,3-Dimethyl-1H-pyrazol-4-yl)-8-(6-hydroxymethyl-5-methoxy-pyridin-3-yl)-3-methyl-1,3-dihydro-imidazo[4,5-c]quinolin-2-one]	150 (≈ 348 µM)	17	8	160	101	–
COCc1ncc(-c2ccc3ncc4c(c3c2)n(-c2cn(C)nc2C)c(=O)n4C)cc1OC [Example 195.1, 1-(1,3-Dimethyl-1H-pyrazol-4-yl)-8-(5-methoxy-6-methoxymethyl-pyridin-3-yl)-3-methyl-1,3-dihydro-imidazo[4,5-c]quinolin-2-one]	439 (≈ 988 µM)	14	63	114	154	–
COCc1ncc(-c2ccc3ncc4c(c3c2)n(-c2cn(C(C)C)nc2C)c(=O)n4C)cc1OC [Example 195.2, 1-(1-Isopropyl-3-methyl-1H-pyrazol-4-yl)-8-(5-methoxy-6-methoxymethyl-pyridin-3-yl)-3-methyl-1,3-dihydro-imidazo[4,5-c]quinolin-2-one]	> 473	35	48	189	343	–
CCn1cc(-n2c(=O)n(C)c3cnc4ccc(-c5cnc(COC)c(OC)c5)cc4c32)c(C)n1 [Example 195.3, 1-(1-Ethyl-3-methyl-1H-pyrazol-4-yl)-8-(5-methoxy-6-methoxymethyl-pyridin-3-yl)-3-methyl-1,3-dihydro-imidazo[4,5-c]quinolin-2-one]	> 459	34	92	184	255	–
[2H]C([2H])([2H])OCc1ncc(-c2ccc3ncc4c(c3c2)n(-c2cn(C)nc2Cl)c(=O)n4C)cc1OC [Example 199, 1-(3-Chloro-1-methyl-1H-pyrazol-4-yl)-8-(5-methoxy-6-trideuteromethoxymethyl-pyridin-3-yl)-3-methyl-1,3-dihydro-imidazo[4,5-c]quinolin-2-one]	8 (≈ 17.1 µM)	5	23	26	29	–
COCc1cc(-c2ccc3ncc4c(c3c2)n(-c2cn(C)nc2C)c(=O)n4C)cnc1OC [Example 202, 1-(1,3-Dimethyl-1H-pyrazol-4-yl)-8-(6-methoxy-5-methoxymethyl-pyridin-3-yl)-3-methyl-1,3-dihydro-imidazo[4,5-c]quinolin-2-one]	16 (≈ 36 µM)	6	23	29	28	–
Cc1nn(C)cc1-n1c(=O)n(C)c2cnc3ccc(-c4cnc5c(c4)OCCN5C)cc3c21 [Example 209, 1-(1,3-Dimethyl-1H-pyrazol-4-yl)-3-methyl-8-(4-methyl-3,4-dihydro-2H-pyrido[3,2-b][1,4]oxazin-7-yl)-1,3-dihydro-imidazo[4,5-c]quinolin-2-one]	–	9	18	22	66	2 (≈ 4.53 µM)
Cc1nn(C)cc1-n1c(=O)n(C)c2cnc3ccc(-c4cncc(C(C)(C)O)c4)cc3c21 [Example 215.2, 1-(1,3-Dimethyl-1H-pyrazol-4-yl)-8-[5-(1-hydroxy-1-methyl-ethyl)-pyridin-3-yl]-3-methyl-1,3-dihydro-imidazo[4,5-c]quinolin-2-one]	> 428	11	43	113	178	–
Cc1nn(C)cc1-n1c(=O)n(C)c2cnc3ccc(-c4cncc(C5(O)CCCC5)c4)cc3c21 [Example 218, 1-(1,3-Dimethyl-1H-pyrazol-4-yl)-8-[5-(1-hydroxy-cyclopentyl)-pyridin-3-yl]-3-methyl-1,3-dihydro-imidazo[4,5-c]quinolin-2-one]	14 (≈ 30.8 µM)	6	22	27	53	–
Cc1nn(C)cc1-n1c(=O)n(C)c2cnc3ccc(-c4cncc(C(C)(C)C#N)c4)cc3c21 [Example 220.1, 2-{5-[1-(1,3-Dimethyl-1H-pyrazol-4-yl)-3-methyl-2-oxo-2,3-dihydro-1H-imidazo[4,5-c]quinolin-8-yl]-pyridin-3-yl}-2-methyl-propionitrile]	–	8	10	18	23	2 (≈ 4.57 µM)
CNC(=O)c1cc(-c2ccc3ncc4c(c3c2)n(-c2cn(C(C)C)nc2C)c(=O)n4C)cnc1N [Example 224.2, 2-Amino-5-[1-(1-isopropyl-3-methyl-1H-pyrazol-4-yl)-3-methyl-2-oxo-2,3-dihydro-1H-imidazo[4,5-c]quinolin-8-yl]-N-methyl-nicotinamide]	16 (≈ 34 µM)	41	104	130	132	–
COc1ncc(-c2ccc3ncc4c(c3c2)n(-c2cn(C)nc2C)c(=O)n4C)c(OC)n1 [Example 234.2, 8-(2,4-Dimethoxy-pyrimidin-5-yl)-1-(1,3-dimethyl-1H-pyrazol-4-yl)-3-methyl-1,3-dihydro-imidazo[4,5-c]quinolin-2-one]	22 (≈ 51 µM)	< 3	13	26	23	–
CCn1cc(-n2c(=O)n(C)c3cnc4ccc(-c5cnc(NC)nc5OC)cc4c32)c(C)n1 [Example 236, 1-(1-Ethyl-3-methyl-1H-pyrazol-4-yl)-8-(4-methoxy-2-methylamino-pyrimidin-5-yl)-3-methyl-1,3-dihydro-imidazo[4,5-c]quinolin-2-one]	–	7	< 5	6	13	2 (≈ 4.5 µM)
COc1ccc(-c2ccc3ncc4[nH]c(=O)n(-c5cn(C)nc5C)c4c3n2)cc1OC [Example 249, 8-(3,4-dimethoxy-phenyl)-1-(1,3-dimethyl-1H-pyrazol-4-yl)-1,3-dihydro-1,3,5,9-tetraaza-cyclopenta[a]naphthalen-2-one]	16 (≈ 38.4 µM)	8	7	22	29	–
